Test results reported in PMC3813752 (PLoS ONE, 2013).
Several values for one entry are separate records, joined by “and”; a condition that tells them apart may be missing. Equal entries are not always repeated. Entries after “also recorded” stand apart in the source; their conditions may differ. Where two headings read alike, the source gives them in different places. Marks after values point to notes of the source that are not given here.

Experiments:
human GPR18 [1] = target: T1, human GPR18 (Homo sapiens, UniProt Q14330); test: cell-based; settings: for inhibition at 10 µM: CHO, read-out: % inhibition of Δ9-THC (10 µM)-induced β-arrestin recruitment at GPR18, test compound at 10 µM; for IC50: GPR18 IC50, β-arrestin recruitment, antagonist mode vs. Δ9-THC (10 µM)
T1 sequence (Q14330 1-331): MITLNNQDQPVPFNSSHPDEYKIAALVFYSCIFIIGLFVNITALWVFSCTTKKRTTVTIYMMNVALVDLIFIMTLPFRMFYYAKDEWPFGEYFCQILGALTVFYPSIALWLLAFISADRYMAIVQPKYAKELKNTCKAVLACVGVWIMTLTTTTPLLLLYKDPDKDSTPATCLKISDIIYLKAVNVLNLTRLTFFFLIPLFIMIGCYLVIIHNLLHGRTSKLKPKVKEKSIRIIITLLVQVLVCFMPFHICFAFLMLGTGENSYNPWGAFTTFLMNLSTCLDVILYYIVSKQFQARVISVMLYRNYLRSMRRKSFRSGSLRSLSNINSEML

human CB1 receptor [2] = target: T2, human CB1 receptor (Homo sapiens, UniProt P21554); test: cAMP accumulation assay, CHO cells expressing CB1; assay type: cell-based; settings: for efficacy CB1, cAMP accumulation assay: at 10 µM, compared to max. effect of full agonist CP55,940 (1 µM) = 100%
human CB2 receptor [3] = target: T3, human CB2 receptor (Homo sapiens, UniProt P34972); test: cAMP accumulation assay, CHO cells expressing CB2; assay type: cell-based; settings: for functional property at CB2 (agonist/antagonist): in words, standard ligands partly from the literature; for efficacy CB2, cAMP accumulation assay: at 10 µM, compared to max. effect of full agonist CP55,940 (1 µM) = 100%
human GPR18 [4] = target: T1, human GPR18; settings: for functional property at GPR18 (agonist/antagonist): in words; for agonist effect on β-arrestin recruitment at GPR18: test compound 10 µM, related to effect of Δ9-THC 10 µM = 100%
human GPR55 = human GPR55 (Homo sapiens, UniProt Q9Y2T6); test: β-arrestin recruitment assay (PathHunter), CHO cells expressing GPR55; settings: for inhibition at 10 µM: CHO; for IC50: GPR55 IC50, β-arrestin recruitment, antagonist mode vs. LPI (1 µM); for functional property at GPR55 (agonist/antagonist): in words; for agonist effect on β-arrestin recruitment at GPR55: test compound 10 µM, related to effect of LPI 1 µM = 100%
human CB2 receptor [5] = target: T3, human CB2 receptor; test: Radioligand binding (heterologous competition) vs. [3H]CP55,940 at CB2; settings: for Ki: three independent experiments in duplicates
human CB1 receptor [6] = target: T2, human CB1 receptor; test: biochemical; assay type: binding; settings: for Ki: membranes of CHO cells expressing human CB1, three independent experiments in duplicates, read-out: Ki CB1, heterologous competition vs. [3H]CP55,940; for increase in CB1 receptor affinity compared to the unmethylated parent biphenyl: 60a vs 60, 61a vs 61
[7] = in words, standard ligands partly from the literature
[8] = read-out: % inhibition of LPI (1 µM)-induced β-arrestin recruitment at GPR55
[9] = read-out: % inhibition of LPI (1 µM)-induced β-arrestin recruitment at GPR55, test compound at 10 µM
[10] = membranes of CHO cells expressing human CB2, read-out: Ki CB2, heterologous competition vs. [3H]CP55,940
[11] = inhibition of forskolin-stimulated cAMP, CHO-hCB1, read-out: EC50 CB1, cAMP accumulation assay
[12] = Ki CB2, heterologous competition vs. [3H]CP55,940, membranes of CHO cells expressing human CB2

T3 sequence (P34972 whole entry): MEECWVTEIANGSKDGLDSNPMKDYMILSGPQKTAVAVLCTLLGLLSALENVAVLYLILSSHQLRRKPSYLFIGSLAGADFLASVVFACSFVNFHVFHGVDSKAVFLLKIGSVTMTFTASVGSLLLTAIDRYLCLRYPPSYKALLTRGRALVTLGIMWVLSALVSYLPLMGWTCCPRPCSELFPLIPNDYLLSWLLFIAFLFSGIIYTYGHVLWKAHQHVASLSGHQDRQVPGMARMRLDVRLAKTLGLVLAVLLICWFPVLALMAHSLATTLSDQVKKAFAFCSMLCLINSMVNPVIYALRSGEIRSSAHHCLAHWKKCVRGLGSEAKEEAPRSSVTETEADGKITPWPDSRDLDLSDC
Chain of human GPR55 (Q9Y2T6 whole entry): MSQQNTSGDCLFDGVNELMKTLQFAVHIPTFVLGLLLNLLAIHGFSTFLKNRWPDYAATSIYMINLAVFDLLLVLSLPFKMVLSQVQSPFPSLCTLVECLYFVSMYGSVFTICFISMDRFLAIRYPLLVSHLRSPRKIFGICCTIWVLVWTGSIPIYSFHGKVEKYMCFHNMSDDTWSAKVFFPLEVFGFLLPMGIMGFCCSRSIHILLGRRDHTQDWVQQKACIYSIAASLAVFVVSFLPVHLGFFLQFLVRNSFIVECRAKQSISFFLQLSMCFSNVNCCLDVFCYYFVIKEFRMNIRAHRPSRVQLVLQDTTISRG
T2 sequence (P21554 whole entry): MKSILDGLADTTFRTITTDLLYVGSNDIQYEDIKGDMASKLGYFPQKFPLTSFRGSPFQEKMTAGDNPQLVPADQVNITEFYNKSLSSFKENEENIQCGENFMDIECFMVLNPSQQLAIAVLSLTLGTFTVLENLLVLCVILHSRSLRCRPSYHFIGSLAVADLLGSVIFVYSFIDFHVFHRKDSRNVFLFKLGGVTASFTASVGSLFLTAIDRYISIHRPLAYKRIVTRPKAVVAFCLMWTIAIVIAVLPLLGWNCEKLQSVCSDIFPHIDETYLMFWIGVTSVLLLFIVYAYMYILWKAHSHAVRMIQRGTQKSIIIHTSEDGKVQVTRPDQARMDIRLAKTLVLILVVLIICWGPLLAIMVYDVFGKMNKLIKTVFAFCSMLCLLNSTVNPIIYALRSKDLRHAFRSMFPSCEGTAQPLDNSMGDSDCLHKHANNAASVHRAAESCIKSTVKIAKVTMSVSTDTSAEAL

SMILES	EC50 (human GPR18 [1]) [µM]	inhibition at 10 µM (human GPR18 [1]) [%]	IC50 (human GPR18 [1])	functional property at CB1 (agonist/antagonist) (human CB1 receptor [2]; [7])	functional property at CB2 (agonist/antagonist) (human CB2 receptor [3])	functional property at GPR18 (agonist/antagonist) (human GPR18 [4])	agonist effect on β-arrestin recruitment at GPR18 (human GPR18 [4]) [%]	EC50 (human GPR55) [µM]	inhibition at 10 µM (human GPR55; [8]) [%]	IC50 (human GPR55)	functional property at GPR55 (agonist/antagonist) (human GPR55)	agonist effect on β-arrestin recruitment at GPR55 (human GPR55) [%]	inhibition at 10 µM (human GPR55; [9]) [%]	Ki (human CB1 receptor [6]) [µM]	EC50 (human CB2 receptor [3]) [µM]	Ki (human CB2 receptor [5]; [12]) [µM]	also measured
CCCc1ccc(O)c(-c2cc(CCC)ccc2O)c1 [Compound 12, tetrahydromagnolol]	> 10	64	30.9 ± 15.8 µM	agonist	agonist	antagonist	0	> 10	96	13.2 ± 4 µM	antagonist	24					
CCCCCc1ccc(O)c(-c2cc(CCCC)ccc2O)c1 [Compound 64]	> 10	94	13.9 ± 0.9 µM				0	> 10		> 10 µM		15	21	3.61 ± 1.35			efficacy CB1, cAMP accumulation assay (human CB1 receptor [2]): (122%)^b; efficacy CB2, cAMP accumulation assay (human CB2 receptor [3]): (68%)^b; Ki (human CB2 receptor [5]; [10]): 0.234 ± 0.039 µM
CCCCCc1ccc(O)c(-c2cc(CCC)ccc2OC)c1 [Compound 60a, 2-(2-methoxy-5-propyl-phenyl)-4-pentylphenol]	> 10	47	> 10 µM and ~10 µM	Full agonists; also recorded: agonist	Full agonists; also recorded: agonist	antagonist	22	> 10	66	6.93 ± 1.06 µM	antagonist	0		0.0173 ± 0.0014	0.0399 ± 0.01	0.031 ± 0.0099	EC50 (human CB1 receptor [2]; [11]): 0.0375 ± 0.0056 µM; increase in CB1 receptor affinity compared to the unmethylated parent biphenyl (human CB1 receptor [6]): 21 fold
CCCCCc1ccc(O)c(-c2cc(CCC)ccc2O)c1 [Compound 60, 5-Pentyl-5′-propylbiphenyl-2,2′-diol]	> 10	118	14.5 ± 2.8 µM	full agonistic effects; also recorded: full agonists; also recorded: agonist	partial agonists; also recorded: almost full efficacy; also recorded: agonist	antagonist	0	> 10		> 10 µM and ~10 µM	antagonist	28	45	0.362 ± 0.113	0.258 ± 0.013	0.0371 ± 0.0078	EC50 (human CB1 receptor [2]): 0.971 ± 0.089 µM
COc1ccc(C(=O)c2c(C)n(CCN3CCOCC3)c3cc(I)ccc23)cc1 [Compound 7, reference compound]	> 10	52	~10 µM	agonist	antagonist	antagonist	0	> 10	48	≥ 10 µM	antagonist	22					
CCCCCCCc1ccc(O)c(-c2cc(CCC)ccc2O)c1 [Compound 62]	> 10	123	10.6 ± 0.4 µM				0	> 10		> 10 µM		5	17				efficacy CB1, cAMP accumulation assay (human CB1 receptor [2]): (110%)^b; efficacy CB2, cAMP accumulation assay (human CB2 receptor [3]): (57%)^b
CCCCCCc1ccc(O)c(-c2cc(CCC)ccc2OC)c1 [Compound 61a, 5-Hexyl-2′-methoxy-5′-propylbiphenyl-2-ol]	> 10	30	> 10 µM	Full agonists; also recorded: agonist	Full agonists; also recorded: agonist	antagonist	0	> 10	58	~10 µM	antagonist	0		0.00957 ± 0.00543	0.0385 ± 0.017	0.0238 ± 0.0071	EC50 (human CB1 receptor [2]; [11]): 0.159 ± 0.076 µM; increase in CB2 receptor affinity of 61a compared to isomer 61b (human CB2 receptor [5]): 12 fold; increase in CB1 receptor affinity of 61a compared to isomer 61b (human CB1 receptor [6]): 33 fold; increase in CB1 receptor affinity compared to the unmethylated parent biphenyl (human CB1 receptor [6]): 15 fold
CCCc1ccc(O)c(-c2cc(CCC)ccc2OC)c1 [Compound 12a, methoxytetrahydromagnolol]	> 10	41	~10 µM	Full agonists; also recorded: agonist	Full agonists; also recorded: agonist	antagonist	26	> 10	82	4.55 ± 1.08 µM	antagonist	0		0.267 ± 0.058	0.0778 ± 0.0205	0.221 ± 0.057	EC50 (human CB1 receptor [2]; [11]): 0.622 ± 0.284 µM
CCCCCCc1ccc(OC)c(-c2cc(CCC)ccc2O)c1 [Compound 61b, 5′-Hexyl-2′-methoxy-5-propylbiphenyl-2-ol]	> 10	22	> 10 µM	CB1-antagonistic activity; also recorded: antagonist	partial agonistic activity; also recorded: agonist	antagonist	0	> 10		3.25 ± 0.29 µM	antagonist	0	120	0.313 ± 0.125	0.595 ± 0.15		Kb (human CB1 receptor [2]): 1.85 µM; Ki (human CB2 receptor [5]; [10]): 0.281 ± 0.101 µM; reduction of CB1 receptor affinity compared to 61 (human CB1 receptor [6]): 2 fold
CCCCCCCCc1ccc(O)c(-c2cc(CCC)ccc2O)c1 [Compound 63]	> 10	123	10.7 ± 0.7 µM				0	> 10		> 10 µM		0	0	1.66 ± 0.45			efficacy CB1, cAMP accumulation assay (human CB1 receptor [2]): (73%)^b; efficacy CB2, cAMP accumulation assay (human CB2 receptor [3]): (52%)^b; Ki (human CB2 receptor [5]; [10]): 0.955 ± 0.418 µM
CCCCCCC(C)(C)c1ccc(C2CC(O)CCC2CCCO)c(O)c1 (single isomer, unassigned; (-)) [Compound 4, (-)-cis-3-[2-hydroxy-4-(1,1-dimethylheptyl)phenyl]-trans-4-(3-hydroxypropyl)cyclohexanol, reference compound]	> 10	188	5.99 ± 1.88 µM		agonist	inverse agonistic activity; also recorded: antagonist	0	> 10	93	1.61 ± 0.47 µM	antagonistic activity; also recorded: antagonist	4					functional property at CB1 (agonist/antagonist) (human CB1 receptor [2]): agonist
COc1ccc(-c2oc3cc(OC)ccc3c2C(=O)c2ccc(C#N)cc2)cc1 [Compound 6, reference compound]	> 10	81	4.97 ± 1.51 µM	antagonist	antagonist	antagonist	0	> 10		4.14 ± 1.05 µM	antagonist	0	81				
